# From ChEMBL document CHEMBL1681651, “A broad spectrum anticancer nucleoside with selective toxicity against human colon cells in vitro” (2011)
# Key:
# Assay type in all cases: functional
# SK-OV-3 = assay: Growth inhibition of human SKOV3 cells assessed as cell growth at 1 uM after 48 hrs by SRB assay; conditions: SK-OV-3, 48 h, read-out: Activity
# RXF 393 = assay: Growth inhibition of human RXF393 cells assessed as cell growth at 1 uM after 48 hrs by SRB assay; conditions: RXF 393, 48 h, read-out: Activity
# TK-10 = assay: Growth inhibition of human TK10 cells assessed as cell growth at 1 uM after 48 hrs by SRB assay; conditions: TK-10, 48 h, read-out: Activity
# MDA-MB-231 = assay: Growth inhibition of human MDA-MB-231 cells assessed as cell growth at 1 uM after 48 hrs by SRB assay; conditions: MDA-MB-231, 48 h, read-out: Activity
# K562 = assay: Growth inhibition of human K562 cells assessed as cell growth at 10 uM after 48 hrs by SRB assay; conditions: K562, 48 h, read-out: Activity
# MOLT-4 = assay: Growth inhibition of human MOLT4 cells assessed as cell growth at 10 uM after 48 hrs by SRB assay; conditions: MOLT-4, 48 h, read-out: Activity
# HCC 2998 = assay: Growth inhibition of human HCC2998 cells assessed as cell growth at 10 uM after 48 hrs by SRB assay; conditions: HCC 2998, 48 h, read-out: Activity
# SW-620 = assay: Growth inhibition of human SW620 cells assessed as cell growth at 10 uM after 48 hrs by SRB assay; conditions: SW-620, 48 h, read-out: Activity
# KM12 = assay: Growth inhibition of human KM12 cells after 48 hrs by […] growth inhibition assay; conditions: KM12, 48 h
# SF-295 = assay: Growth inhibition of human SF295 cells after 48 hrs by […] growth inhibition assay; conditions: SF-295, 48 h
# SF-539 = assay: Growth inhibition of human SF539 cells after 48 hrs by […] growth inhibition assay; conditions: SF-539, 48 h
# OVCAR-4 = assay: Growth inhibition of human OVCAR4 cells after 48 hrs by […] growth inhibition assay; conditions: OVCAR-4, 48 h
# A498 [1] = assay: Growth inhibition of human A498 cells after 48 hrs by […] growth inhibition assay; conditions: A498, 48 h
# BT-549 = assay: Growth inhibition of human BT549 cells after 48 hrs by […] growth inhibition assay; conditions: BT-549, 48 h
# MCF7 = assay: Growth inhibition of human MCF7 cells after 48 hrs by […] growth inhibition assay; conditions: MCF7, 48 h
# [2] = Growth inhibition of human […] cells assessed as cell growth at 0.1 uM after 48 hrs by SRB assay; conditions: read-out: Activity
# HOP-62 = assay: Growth inhibition of human HOP62 cells assessed as cell growth at 0.1 uM after 48 hrs by SRB assay; conditions: HOP-62, 48 h, read-out: Activity
# NCI-H322M = assay: Growth inhibition of human NCI-H322M cells assessed as cell growth at 0.1 uM after 48 hrs by SRB assay; conditions: read-out: Activity
# SF-268 [3] = assay: Growth inhibition of human SF268 cells assessed as cell growth at 0.1 uM after 48 hrs by SRB assay; conditions: SF-268, 48 h, read-out: Activity
# U-251 [4] = assay: Growth inhibition of human U251 cells assessed as cell growth at 0.1 uM after 48 hrs by SRB assay; conditions: U-251, 48 h, read-out: Activity
# U-251 [5] = assay: Growth inhibition of human U251 cells assessed as cell growth at 10 uM after 48 hrs by SRB assay; conditions: U-251, 48 h, read-out: Activity
# SK-MEL-5 = assay: Growth inhibition of human SK-MEL-5 cells assessed as cell growth at 10 uM after 48 hrs by SRB assay; conditions: SK-MEL-5, 48 h, read-out: Activity
# UACC-257 = assay: Growth inhibition of human UACC257 cells assessed as cell growth at 10 uM after 48 hrs by SRB assay; conditions: UACC-257, 48 h, read-out: Activity
# CAKI-1 = assay: Growth inhibition of human Caki1 cells assessed as cell growth at 10 uM after 48 hrs by SRB assay; conditions: CAKI-1, 48 h, read-out: Activity
# NCI-H23 = assay: Growth inhibition of human NCI-H23 cells assessed as cell growth at 100 uM after 48 hrs by SRB assay; conditions: NCI-H23, 48 h, read-out: Activity
# SNB-75 = assay: Growth inhibition of human SNB75 cells assessed as cell growth at 100 uM after 48 hrs by SRB assay; conditions: SNB-75, 48 h, read-out: Activity
# OVCAR-3 = assay: Growth inhibition of human OVCAR3 cells assessed as cell growth at 100 uM after 48 hrs by SRB assay; conditions: OVCAR-3, 48 h, read-out: Activity
# A498 [6] = assay: Growth inhibition of human A498 cells assessed as cell growth at 100 uM after 48 hrs by SRB assay; conditions: A498, 48 h, read-out: Activity
# EKVX = assay: Growth inhibition of human EKVX cells assessed as cell growth at 1 mM after 48 hrs by SRB assay; conditions: read-out: Activity
# SF-268 [7] = assay: Growth inhibition of human SF268 cells assessed as cell growth at 1 mM after 48 hrs by SRB assay; conditions: SF-268, 48 h, read-out: Activity
# NCI-H522 = assay: Growth inhibition of human NCI-H522 cells assessed as cell growth at 1 uM after 48 hrs by SRB assay; conditions: NCI-H522, 48 h, read-out: Activity
# [8] = read-out: LC50 (the source's name)
# [9] = read-out: pLC50 (the source's name) (converted)
compound,measurement,setting,value
CCOC(=O)C[C@H]1[C@@H](O[Si](C)(C)C(C)(C)C)[C@H](n2cnc3c(NC(=O)Nc4ccccc4)ncnc32)O[C@@H]1CNC(=O)NC,growth at 1 µM,SK-OV-3,96%
same,growth at 1 µM,RXF 393,97%
same,growth at 1 µM,TK-10,103%
same,growth at 1 µM,MDA-MB-231,103%
same,growth at 10 µM,K562,89%
same,growth at 10 µM,MOLT-4,76%
same,growth at 10 µM,HCC 2998,93%
same,growth at 10 µM,SW-620,97%
same,GI50,KM12; read-out: GI50,3.95 µM
same,CC50,KM12; [8],> 100 µM
same,TGI,KM12; read-out: TGI,20.9 µM
same,GI50,KM12; read-out: pGI50 (converted),3.98 µM
same,CC50,KM12; [9],> 100 µM
same,TGI,KM12; read-out: pTGI (converted),20.9 µM
same,GI50,SF-295; read-out: GI50,5.73 µM
same,LC50,SF-295; read-out: LC50,> 100 µM
same,TGI,SF-295; read-out: TGI,> 100 µM
same,GI50,SF-295; read-out: pGI50 (converted),5.75 µM
same,LC50,SF-295; read-out: pLC50 (converted),> 100 µM
same,TGI,SF-295; read-out: pTGI (converted),> 100 µM
same,GI50,SF-539; read-out: GI50,5.19 µM
same,CC50,SF-539; [8],> 100 µM
same,TGI,SF-539; read-out: TGI,> 100 µM
same,GI50,SF-539; read-out: pGI50 (converted),5.25 µM
same,CC50,SF-539; [9],> 100 µM
same,TGI,SF-539; read-out: pTGI (converted),> 100 µM
same,GI50,OVCAR-4; read-out: GI50,12.3 µM
same,CC50,OVCAR-4; [8],> 100 µM
same,TGI,OVCAR-4; read-out: TGI,> 100 µM
same,GI50,OVCAR-4; read-out: pGI50 (converted),12.3 µM
same,CC50,OVCAR-4; [9],> 100 µM
same,TGI,OVCAR-4; read-out: pTGI,> 100 µM
same,GI50,A498 [1]; read-out: GI50,3.34 µM
same,CC50,A498 [1]; [8],> 100 µM
same,TGI,A498 [1]; read-out: TGI,17.1 µM
same,GI50,A498 [1]; read-out: pGI50 (converted),3.31 µM
same,CC50,A498 [1]; [9],> 100 µM
same,TGI,A498 [1]; read-out: pTGI (converted),17 µM
same,GI50,BT-549; read-out: GI50,> 100 µM
same,CC50,BT-549; [8],> 100 µM
same,TGI,BT-549; read-out: TGI,> 100 µM
same,GI50,BT-549; read-out: pGI50 (converted),> 100 µM
same,CC50,BT-549; [9],> 100 µM
same,TGI,BT-549; read-out: pTGI (converted),> 100 µM
same,GI50,MCF7; read-out: GI50,3.42 µM
same,CC50,MCF7; [8],> 100 µM
same,TGI,MCF7; read-out: TGI,45.1 µM
same,GI50,MCF7; read-out: pGI50 (converted),3.39 µM
same,CC50,MCF7; [9],> 100 µM
same,TGI,MCF7; read-out: pTGI (converted),44.7 µM
same,growth at 0.1 µM,[2],77%
same,growth at 0.1 µM,HOP-62,99%
same,growth at 0.1 µM,NCI-H322M,105%
same,growth at 0.1 µM,SF-268 [3],102%
same,growth at 0.1 µM,U-251 [4],98%
same,growth at 10 µM,U-251 [5],94%
same,growth at 10 µM,SK-MEL-5,89%
same,growth at 10 µM,UACC-257,99%
same,growth at 10 µM,CAKI-1,99%
same,growth at 100 µM,NCI-H23,65%
same,growth at 100 µM,SNB-75,32%
same,growth at 100 µM,OVCAR-3,16%
same,growth at 100 µM,A498 [6],13%
same,growth at 1000 µM,EKVX,42%
same,growth at 1000 µM,SF-268 [7],-53%
same,growth at 1 µM,NCI-H522,85%
